Data published in patent US20230094952A1, “Method for Culturing Hematopoietic Stem Cells” (Sumitomo Pharma Co., Ltd., priority 2019, published 2023).

System: mouse long-term hematopoietic stem cells
Experiment: Reproducibility and concentration dependence test: 1-week culture of sorted Hoxb5-tri-mCherry mouse long-term hematopoietic stem cells, flow cytometry
Assay type: cell-based
Settings: day 7 of culture, n=2
Procedure: Mice with insertion of a nucleic acid sequence containing three copies of a gene encoding the fluorescent protein mCherry to the C terminus of the mouse endogenous HoxB5 gene (Hoxb5-tri-mCherry) were used (triple-mCherry Hoxb5 knock-in mice; Non Patent Literature 1). The mice were housed under environmental conditions such that the room temperature and the humidity were 20 to 26° C. and 40 to 70%, respectively, under light for 12 hours and under dark for 12 hours (illumination: 8:00 a.m. to 8:00 p.m.).
Bone marrow cells were collected from the tibia, femur, humerus, and pelvis in each side of each of the mice, and gathered in a mortar. A buffer obtained by adding thermally deactivated bovine serum (manufactured by Gibco) at a final concentration of 2% and EDTA at a final concentration of 2 mM to Ca^2+-free and Mg^2+-free PBS was added, and the resultant was broken with a pestle to obtain a cell population including hematopoietic stem cells.
First, the thus-obtained cell population including hematopoietic stem cells was passed through strainers (meshes) of 100 μm, 70 μm, and 40 μm. The cell population was stained with an APC-binding anti-c-Kit (2B8) and fractionated with anti-APC magnetic beads and an LS column (both manufactured by Miltenyi Biotec) to obtain a cell population enriched with hematopoietic stem cells and progenitor cells.
Subsequently, cells being c-Kit-positive were stained with antibodies for the following cell surface markers.
Staining with the antibodies was performed at 4° C., and the cells were incubated for 30 minutes. For staining with the CD34 antibody, the cells were incubated for 90 minutes. Dead cell staining was performed with SYTOX Red Dead Cell Stain (manufactured by Life Technologies) in accordance with a method recommended by the manufacturer.
Flow cytometry analysis and cell classification (cell sorting) were performed with a FACS Aria II cell sorter (manufactured by BD Biosciences), wherein Lineage-negative, c-Kit-positive, Sca-1-positive, Flk2-negative, CD34-negative or weakly CD34-positive, CD150-positive, and mCherry-positive fractions were regarded as long-term hematopoietic stem cells, and analysis was performed with the software FlowJo (manufactured by Tree Star, Inc.).
The cells after classification were seeded in a 96-well plate. A cell culture medium was prepared by adding Stem Cell Factor (SCF, manufactured by PeproTech, Inc.) and Thrombopoietin (TPO, manufactured by PeproTech, Inc.) to StemSpan SFEM culture medium (manufactured by […] Technologies Inc.) and added in advance to a cell culture 96-well plate (manufactured by BD Biosciences) at 100 μL/well, and the cells sorted with the FACS Aria II cell sorter (BD Biosciences) were then seeded at 10 cells/well.
[…] Thereafter, the cells were cultured in a CO2 incubator under conditions of 37° C. and 5% CO2 for 1 week.
After culture, the cells were stained with the antibodies for the surface markers c-Kit and Sca-1, Ter-119, B220, CD3, CD4, CD8a, Gr-1, and CD11b, and the ratio and post-growth cell count of a KLS fraction (c-Kit^+, Lin^−, Sca-1^+) or an mCherry-positive fraction given with use of a FACS Aria II cell sorter were analyzed by using FlowJo (BD Biosciences). The mCherry-positive fraction is a cell fraction expressing the Hoxb5 gene, and the KLS fraction is a cell fraction being c-Kit-positive, Lin-negative, and Sca-1-positive, and includes hematopoietic stem cells and multipotent progenitor cells as main components. […]

Compound	KLS-positive rate (Table 4, compound 0.1 μM)	Viable cell count (Table 4, compound 0.1 μM)	mCherry-positive rate (Table 4, compound 0.1 μM)	KLS-positive rate (Table 4, compound 0.3 μM)	Viable cell count (Table 4, compound 0.3 μM)	mCherry-positive rate (Table 4, compound 0.3 μM)	KLS-positive rate (Table 4, compound 1 μM)	Viable cell count (Table 4, compound 1 μM)	mCherry-positive rate (Table 4, compound 1 μM)	KLS-positive rate (Table 4, compound 3 μM)	Viable cell count (Table 4, compound 3 μM)	mCherry-positive rate (Table 4, compound 3 μM)	KLS-positive rate (Table 4, compound 10 μM)	Viable cell count (Table 4, compound 10 μM)	mCherry-positive rate (Table 4, compound 10 μM)	further results
C[C@@H]1CC[C@H]2[C@@H](C)C(=O)O[C@@H]3O[C@@]4(C)CC[C@@H]1[C@]32OO4 [Example 1-33, artemisinin, reference compound]	20.2%	268.5 cell	28.1%	11.2%	309.5 cell	23.5%	20.3%	268.0 cell	56.8%	26.1%	85.0 cell	81.8%	16.1%	178.0 cell	78.8%	KLS-positive rate (Table 3, compound 0.1 μM): 33.2%; Viable cell count (Table 3, compound 0.1 μM): 445.5 cell; mCherry-positive rate (Table 3, compound 0.1 μM): 49.25%; KLS-positive rate (Table 3, compound 0.3 μM): 18.2%; Viable cell count (Table 3, compound 0.3 μM): 1020 cell; mCherry-positive rate (Table 3, compound 0.3 μM): 28.15%; KLS-positive rate (Table 3, compound 1 μM): 46.85%; Viable cell count (Table 3, compound 1 μM): 728 cell; mCherry-positive rate (Table 3, compound 1 μM): 60.85%; KLS-positive rate (Table 3, compound 3 μM): 50.8%; Viable cell count (Table 3, compound 3 μM): 229 cell; mCherry-positive rate (Table 3, compound 3 μM): 81.3%; KLS-positive rate (Table 3, compound 10 μM): 52%; Viable cell count (Table 3, compound 10 μM): 282.5 cell; mCherry-positive rate (Table 3, compound 10 μM): 80%
C[C@@H]1CC[C@H]2[C@@H](C)C(=O)O[C@@H]3O[C@@]4(C)CC[C@@H]1[C@]32O4 [Example 1-34, (3R,3aS,6R,6aS,9S,10aS,10bR)-3,6,9-Trimethyloctahydro-10aH-9,10b-epoxypyrano[4,3,2-jk][2]benzoxepin-2(3H)-one]	77.3%	136.5 cell	11.7%	28.4%	389.0 cell	18.3%	21.8%	713.5 cell	15.2%	27.7%	268.0 cell	14.6%	27.5%	70.0 cell	0.4%	–
C[C@H]1[C@@H](OCc2ccccc2)O[C@@H]2O[C@@]3(C)CC[C@H]4[C@H](C)CC[C@@H]1[C@@]24OO3 [Example 1-24, (3R,5aS,6R,8aS,9R,10S,12R,12aR)-10-(benzyloxy)-3,6,9-trimethyldecahydro-12H-3,12-epoxypyrano[4,3-j][1,2]benzodioxepine]	73.6%	18.0 cell	94.1%	0.0%	0.5 cell	50.0%	0.0%	0.5 cell	50.0%	0.0%	0.0 cell	0.0%	0.0%	0.5 cell	0.0%	–
C[C@H]1[C@H](CN)O[C@@H]2O[C@@]3(C)CC[C@H]4[C@H](C)CC[C@@H]1[C@@]24OO3 [Example 1-18, 1-[(3R,5aS,6R,8aS,9R,10R,12R,12aR)-3,6,9-Trimethyldecahydro-12H-3,12-epoxypyrano[4,3-j][1,2]benzodioxepin-10-yl]methanamine]	10.9%	405.0 cell	23.5%	16.7%	191.0 cell	15.4%	22.4%	162.0 cell	19.2%	30.9%	154.0 cell	80.5%	49.6%	72.5 cell	98.6%	–
CC(=O)O[C@@H]1O[C@@H]2O[C@@]3(C)CC[C@H]4[C@H](C)CC[C@@H]([C@H]1C)[C@@]24OO3 [Example 1-14, (3R,5aS,6R,8aS,9R,10S,12R,12aR)-3,6,9-Trimethyldecahydro-12H-3,12-epoxypyrano[4,3-j][1,2]benzodioxepin-10-yl acetate]	20.6%	497.5 cell	0.2%	30.1%	340.0 cell	9.0%	47.3%	119.0 cell	22.1%	50.0%	1.0 cell	100.0%	0.0%	0.5 cell	0.0%	–
C[C@H]1[C@H](N(C)C)O[C@@H]2O[C@@]3(C)CC[C@H]4[C@H](C)CC[C@@H]1[C@@]24OO3 [Example 1-12, (3R,5aS,6R,8aS,9R,10R,12R,12aR)—N,N,3,6,9-Pentamethyldecahydro-12H-3,12-epoxypyrano[4,3-j][1,2]benzodioxepin-10-amine]	27.2%	450.5 cell	7.3%	15.8%	262.0 cell	15.2%	19.3%	431.5 cell	8.2%	14.4%	217.0 cell	19.4%	36.6%	234.5 cell	12.1%	–
CO[C@@H]1O[C@@H]2O[C@@]3(C)CC[C@H]4[C@H](C)CC[C@@H]([C@H]1C)[C@@]24OO3 [Example 1-35, (3R,5aS,6R,8aS,9R,10R,12R,12aR)-10-Methoxy-3,6,9-trimethyldecahydro-12H-3,12-epoxypyrano[4,3-j][1,2]benzodioxepine]	13.8%	763.5 cell	3.0%	19.9%	544.5 cell	48.5%	17.9%	554.0 cell	74.0%	48.7%	104.5 cell	92.2%	46.7%	121.5 cell	99.6%	–
CS[C@H]1O[C@@H]2O[C@@]3(C)CC[C@H]4[C@H](C)CC[C@@H]([C@H]1C)[C@@]24OO3 [Example 1-4, (3R,5aS,6R,8aS,9R,10R,12S,12aR)-3,6,9-trimethyl-10-(methylsulfanyl)decahydro-12H-3,12-epoxypyrano[4,3-j][1,2]benzodioxepine]	17.2%	353.0 cell	8.0%	37.9%	103.0 cell	44.7%	31.1%	181.5 cell	85.2%	30.7%	87.5 cell	100.0%	61.4%	7.5 cell	90.9%	–
